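Step 1: Grow cells in 96-well plates. Step 2: Expose to compound for 48 hours at 5 concentrations. Step 3: Interpolate endpoints linearly; if unreached, use highest concentration. Here, GI50 denotes the concentration required for 50% inhibition of growth.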 The source made the active and inactive calls. No stated cut-off is given here; in the data, active = GI50 up to about 1.1 µM and inactive = higher.
Legend:
Test in all cases: NCI tumour cell line growth inhibition, 48 h
[1] = test system: A549
[2] = test system: ACHN
[3] = test system: K562
[4] = test system: LOX IMVI
[5] = test system: M14
[6] = test system: MDA-N
[7] = test system: MOLT-4
[8] = test system: Malme-3M
[9] = test system: NCI-H23
[10] = test system: NCI/ADR-RES
[11] = test system: OVCAR-8
[12] = test system: RXF 393
[13] = test system: SF-268
[14] = test system: SK-MEL-28
[15] = test system: SK-OV-3
[16] = test system: SNB-19
[17] = test system: SW-620
[18] = test system: U-251
[19] = test system: UACC-257
[20] = test system: UACC-62

Measured: GI50

Cn1c(=O)cc(Nc2ccc(N)cc2)[nH]c1=O
inactive: [1] > 100 µM | [2] > 100 µM | [3] > 100 µM | [4] > 100 µM | [5] > 100 µM | [6] > 100 µM | [7] > 100 µM | [8] > 100 µM | [9] > 100 µM | [10] > 100 µM | [11] > 100 µM | [12] > 100 µM | [13] > 100 µM | [14] > 100 µM | [15] > 100 µM | [16] > 100 µM | [17] > 100 µM | [18] > 100 µM | [19] > 100 µM | [20] > 100 µM

CC1CC(c2ccccc2)Nc2nc3ccccc3n21 (stereo not given)
inactive: [1] > 100 µM | [2] > 100 µM | [3] > 100 µM | [4] > 100 µM | [5] > 100 µM | [6] > 100 µM | [7] > 100 µM | [8] > 100 µM | [9] > 100 µM | [10] > 100 µM | [11] > 100 µM | [12] > 100 µM | [13] > 100 µM | [14] > 100 µM | [15] > 100 µM | [16] > 100 µM | [17] > 100 µM | [18] > 100 µM | [19] > 100 µM | [20] > 100 µM

COC(=O)Nc1nc2cc(S(=O)(=O)N3CCOCC3)ccc2[nH]1
inactive: [1] > 100 µM | [2] > 100 µM | [3] 44.7 µM | [4] > 100 µM | [5] > 100 µM | [6] 27.6 µM | [7] 94.4 µM | [8] > 100 µM | [9] > 100 µM | [10] > 100 µM | [11] > 100 µM | [12] > 100 µM | [13] > 100 µM | [14] 49.7 µM | [15] > 100 µM | [16] > 100 µM | [17] 54.1 µM | [18] > 100 µM | [19] > 100 µM | [20] > 100 µM

— ChEMBL document CHEMBL1201862, “PubChem BioAssay data set” (2004)
